We go through five compounds from patent US20230381173A1, “METHODS AND PHARMACEUTICAL COMPOSITION FOR TREATING DISEASES” (TONGLI BIOMEDICAL CO. LTD., priority 2021, published 2023).

One series has as its system Neobenedenia melleni. As to the kind of experiment: Antiparasitic activity of medicated feed in infected yellow croaker. It counts as in vivo, large yellow croaker (Larimichthys crocea). The note with it: for Infectivity: Day 3. The source says:
The purpose of this experiment was to evaluate palatability and efficacy of (R)-praziquantel Form B (R-PZQ) against Monogenean trematode infection (Neobenedenia melleni) in large yellow croaker (Larimichthys crocea). Praziquantel (PZQ) was used as a positive control.
All experimental yellow croakers (about 50-75 g BW/fish) were infected with Neobenedenia melleni, and the average infection intensity was 100-120 parasites/fish.
Fish were fed 2 times a day (morning and afternoon) at up to 4% BW per day. The medicated granular feed was prepared as descripted under section “LIQUID COMPOSITIONS AND SOLID FORMULATIONS CONTAINING (R)-PRAZIQUANTEL FORM B FOR AQUACULTURE AND FISH”. Briefly, the powders of (R)-praziquantel Form B ([…]) or praziquantel (PZQ) were mixed with 4% (v/v) squid oil. The resulting squid oil was subsequently top-dressed onto commercial feed granules. Control feed was prepared by top-dressing with 4% squid oil onto the feed granules without containing the compounds.
During treatment, amount and time to consume the medicated (or control) feed by the fishes in each group were observed and scored for palatability as poor (+) to excellent (+++++). Two days after dosing (Day 3), each fish was soaked in water individually and the number of parasites was recorded separately.

Another series concerns Dactylogyrus vastator. The experiment in a line: Bath treatment of Dactylogyrus infected goldfish. In kind it is in vivo, goldfish (Carassius auratus). The settings on record: bath 1.5 mg/L, 48 hours. The procedure:
(R)-praziquantel Form B was tested for use in treating fish parasites. Specifically, the effect of bath treatment of monogenean Dactylogyrus infected goldfish (Carassius auratus) was investigated. […] Two days after treatment, the number of attached parasites in whole gills of each fish was counted. Reduction rate=(average survival of worms in the blank control group−average survival of worms in the administration group)/average survival of worms in the blank control group×100%.

The conditions of series [1]: highest concentration of 10 mg/L. The protocol: Goldfish were acclimatized to 22° C. water (pH 7˜7.5, dissolved oxygen>5 mL/L) and were challenged with Dactylogyrus vastator. When infection rate and infection intensity reached 100% and over 10 parasite/whole gills of each fish within about 10 days, the fish were then treated with various concentrations of the (R)-praziquantel Form B or praziquantel for 48 hours by bath. Infected fish […] were used as a control group. 20 infected fish were placed per concentration for each treatment.

The nature of series [2]: Long-term stability of (R)-praziquantel Form B API. In kind it is physicochemical. The note with it: for Appearance / Assay(Anhydrous basis) / Chiral Purity / Purity / Related Substances, largest single impurity (RRT = 0.60) / Related Substances, total impurities / XRPD Characterization / Water Content: 25° C., 60% relative humidity; for Water Content: Karl Fischer. The protocol:
Accurately weigh about 0.1-0.5 g of sample of Form B and transfer it to KF titrator container (aldehyde ketone Volumetric method), measure the samples according to USP<921>. The active pharmaceutical ingredient (API) of Form B was stored for 18 months under different storage conditions: 25° C. and 60% relative humidity, 30° C. and 65% relative humidity, and 40° C. and 75% relative humidity, in a sealed and open condition. […] In some embodiments, under various storage conditions the anhydrous API provided herein can be stable and water content controlled under 0.5% and monitored by KF for at least, or at least about, 3 months, 6 months, 9 months, 12 months, 18 months, 24 months and 36 months. For example, under storage conditions of 25° C. and 60% relative humidity, the tablets and API provided herein can be stable for at least, or at least about, 3 months, 6 months, 9 months, 12 months and 18 months.

Series [3] in a line: Accelerated solid state stability of anhydrate (Form B) and hemihydrate (R)-praziquantel, open and closed condition. It counts as physicochemical. The procedure: The Accelerated Solid State Stability of the Anhydrate (Form B) and Hemihydrate (R)-Praziquantel in an Open and Closed Condition […] The accelerated solid-state stability of the anhydrate and hemihydrate (R)-praziquantel was determined by storing approximately 1.0 g of the material in a glass dish at a) the anhydrate at 45° C./75% (RH), closed, for 3 months. and b) 45° C./75% Relative Humidity (RH), open exposure condition, for 3 months. The material was assayed by KF, TGA and HPLC for final content and degradation products.

The nature of series [4]: Physicochemical characterization of Form B (hygroscopicity).
For series [5] the following is noted: at the same dose level; cited from earlier work.
The test system of the next series is isolated rat atria. The settings on record: cited from earlier work.
For series [6] the following is noted: cited from earlier work.
For series [7] the following is noted: rabbit, in vivo; cited from earlier work.
The mark [8] stands for this setting: medicated feed 75 mg/kg × 2 days.
[9] abbreviates: medicated feed 37 mg/kg × 2 days.
Setting [10] is: Closed condition, 45° C./75% RH, 3 months.
The mark [11] stands for this setting: Open, 45° C., RH75%, T3 (3 months).
Setting [12] is: Opened condition, 45° C./75% RH, 3 months.
Setting [13] is: Sealed, 45° C., RH75%, T3 (3 months).

In the series on Neobenedenia melleni (setting [8]), `O=C(C1CCCCC1)N1CC(=O)N2CCc3ccccc3C2C1` (racemic) [Praziquantel, reference compound] returned a Mortality of 3% and an Infectivity of 54%. In the series on Dactylogyrus vastator, the Infection rate was 100% and the Worm reduction turned out to be 45%.

Consider `O=C(C1CCCCC1)N1CC(=O)N2CCc3ccccc3[C@@H]2C1` [(R)-praziquantel Form B, (R)-2-(cyclohexanecarbonyl)-2,3,6,7-tetrahydro-1H-pyrazino[2,1-a] isoquinolin-4(11bH)-one], for which the “Toxic effect in the treated fish” value in series [1] is reported as “no toxic effect”. In the series on Neobenedenia melleni (setting [9]), this compound registered a Mortality of 0% and an Infectivity of 35%. In the series with Neobenedenia melleni (setting [8]), this compound came in with a Mortality of 0% and an Infectivity of 6%. Also, in the series with Neobenedenia melleni (oral treatment), the Antiparasitic efficacy entry was “dose dependent and superior to PZQ”. In the series on Dactylogyrus vastator, this compound yielded an Infection rate of 100% and a Worm reduction of 98%. In series [2] (18 months, 25° C./60% RH, 30° C./65% RH, 40° C./75% RH, sealed and open), the “Storage stability of API” value was “good stability”. In [2] (18 M), the Appearance entry was “White solid”, the “Assay(Anhydrous basis)” value worked out at 101.00%, the “Chiral Purity” value came out at 100.00% and the Purity turned out to be 99.90%. In addition, in series [2] (18 M), the “Related Substances, largest single impurity (RRT = 0.60)” value is on record as “RRT = 0.60: 0.03%”; the “Related Substances, total impurities” value is 0.11%; the “XRPD Characterization” value is given as “Conforms”; the “Water Content” value is 0.27%. In series [2] (Initial (0 M)), the Appearance entry was “White solid”, the “Assay(Anhydrous basis)” value amounted to 99.80%, the “Chiral Purity” value is listed as 100.00% and the Purity amounted to 99.90%. For the same compound, in [2] (Initial (0 M)), the “Related Substances, largest single impurity (RRT = 0.60)” value was “RRT = 0.60: 0.04%”; the “Related Substances, total impurities” value is on record as 0.10%; the “XRPD Characterization” value is reported as “Conforms”; the “Water Content” value amounted to 0.50%. In addition, in [3] (setting [10]), the “Degradation (HPLC)” value is given as “no significant degradation observed” and the “Water uptake (KF)” value is at most 0.3%. The “Water content (KF)” value in [3] (Open, 45° C., RH75%, T0, listed as Anhydrate) was 1.30%. In addition, the “Water content (KF)” value in series [3] (Open, 45° C., RH75%, T0, listed as anhydrate) worked out at 1.3%. The “Impurities by HPLC, RRT 0.6” value in [3] (setting [11]) was “RRT 0.6: 0.04%”. Further, the “Water content (KF)” value in series [3] (Open, 45° C., RH75%, T3 (3 months), listed as Anhydrate) worked out at 2.50%. Also, the “Water content (KF)” value in [3] (Open, 45° C., RH75%, T3 (3 months), listed as anhydrate) is listed as “about 2.5%”. Further, in series [3] (setting [12]), the “Degradation (HPLC)” value is listed as “no significant degradation observed” and the “Impurity peaks found (HPLC)” value is “none of impurity peak found”. The “Water content (KF)” value in series [3] (Sealed, 45° C., RH75%, T0) worked out at 0.24%. Besides, in [3] (setting [13]), the “Impurities by HPLC, RRT 0.6” value is “RRT 0.6: 0.04%” and the “Water content (KF)” value worked out at 0.32%. The Hygroscopicity entry in series [4] is listed as “slightly hygroscopic”.

Turning to `O=C(C1CCCCC1)N1CC(=O)N2CCc3ccccc3[C@@H]2C1` [(R)-praziquantel], the Anthelmintic efficacy entry in [5] is “better than that of praziquantel”. Besides, the Cardiac toxicity entry (in the series on isolated rat atria; in [7]) was “lower cardiac toxicity than (S)-praziquantel” each time. For the same compound, the Observed side effects result in series [6] (after oral administration (drowsiness, gastric nausea or photosensitivity rash)) is given as “relatively mild”. In addition, the Serious adverse reactions result in series [6] (after oral administration) is “No serious adverse reactions”.

On to `O=C(C1CCCCC1)N1CC(=O)N2CCc3ccccc3[C@H]2C1` [(S)-praziquantel, reference compound], for which the Anthelmintic efficacy result in [5] is “almost no activity”.

On to `O.O=C(C1CCCCC1)N1CC(=O)N2CCc3ccccc3[C@@H]2C1.O=C(C1CCCCC1)N1CC(=O)N2CCc3ccccc3[C@@H]2C1` [Hemihydrate, reference compound], for which, in [3] (Open, 45° C., RH75%, T0), the “Water content (KF)” value came to 2.80%. Moreover, in series [3] (setting [11]), the “Impurities by HPLC, RRT 0.6” value was “RRT0.6: 0.17%,”; the “Impurities by HPLC, RRT 0.9” value is “RRT0.9: 0.13%”; the “Water content (KF)” value is 2.50%. Also, in series [3] (setting [12]), the “Impurity peaks found (HPLC)” value was “two” and the Percent total impurities result is “exceed 0.3%”.
